According to paper PMC8035211 (Nature Communications, 2021):
Like-named read-outs stand apart in the source and are kept apart here.

Experiments:
FgCelDH7C [1] = molecular target: T1, FgCelDH7C (Fusarium graminearum, UniProt I1RWY4); format: biochemical; details: apparent, 0.1 mM DCIP as acceptor, 50 mM HEPES pH 7.0, 35 °C
T1 construct: gene FGRAMPH1_01T10923

FgCelDH7C [2] = molecular target: T1, FgCelDH7C; format: binding; details: covalent; mono-covalent histidyl tether
FgChi7B = molecular target: T2, FgChi7B (Fusarium graminearum, UniProt A0A098DND1); details: covalent; bi-covalent, 6-S-cysteinyl C162 and 8alpha-N1-histidyl H102
T2 construct: gene FGRAMPH1_01T15319
T2 sequence (A0A098DND1 21-504 limits assumed): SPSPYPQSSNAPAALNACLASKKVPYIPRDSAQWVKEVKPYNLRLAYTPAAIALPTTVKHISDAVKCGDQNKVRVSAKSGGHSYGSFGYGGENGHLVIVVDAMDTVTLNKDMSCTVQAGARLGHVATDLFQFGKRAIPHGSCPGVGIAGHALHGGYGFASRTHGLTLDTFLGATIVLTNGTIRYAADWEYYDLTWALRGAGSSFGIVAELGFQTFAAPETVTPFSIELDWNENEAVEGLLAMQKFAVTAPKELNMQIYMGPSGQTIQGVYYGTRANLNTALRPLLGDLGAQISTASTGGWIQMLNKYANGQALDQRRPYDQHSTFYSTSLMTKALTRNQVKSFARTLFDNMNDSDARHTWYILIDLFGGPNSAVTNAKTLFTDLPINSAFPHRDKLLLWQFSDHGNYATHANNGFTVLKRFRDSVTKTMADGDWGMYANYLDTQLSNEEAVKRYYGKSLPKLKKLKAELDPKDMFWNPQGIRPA

MoChi7A = molecular target: T3, MoChi7A (Pyricularia oryzae, UniProt G4NAH7); format: biochemical; details: apparent; O2 as acceptor; 50 mM NaOAc pH 5.2, 35 °C; read-out: Enzyme / MoChi7A / Cellotriose
T3 construct: gene MGG_09717
T3 sequence (G4NAH7 21-718 limits assumed): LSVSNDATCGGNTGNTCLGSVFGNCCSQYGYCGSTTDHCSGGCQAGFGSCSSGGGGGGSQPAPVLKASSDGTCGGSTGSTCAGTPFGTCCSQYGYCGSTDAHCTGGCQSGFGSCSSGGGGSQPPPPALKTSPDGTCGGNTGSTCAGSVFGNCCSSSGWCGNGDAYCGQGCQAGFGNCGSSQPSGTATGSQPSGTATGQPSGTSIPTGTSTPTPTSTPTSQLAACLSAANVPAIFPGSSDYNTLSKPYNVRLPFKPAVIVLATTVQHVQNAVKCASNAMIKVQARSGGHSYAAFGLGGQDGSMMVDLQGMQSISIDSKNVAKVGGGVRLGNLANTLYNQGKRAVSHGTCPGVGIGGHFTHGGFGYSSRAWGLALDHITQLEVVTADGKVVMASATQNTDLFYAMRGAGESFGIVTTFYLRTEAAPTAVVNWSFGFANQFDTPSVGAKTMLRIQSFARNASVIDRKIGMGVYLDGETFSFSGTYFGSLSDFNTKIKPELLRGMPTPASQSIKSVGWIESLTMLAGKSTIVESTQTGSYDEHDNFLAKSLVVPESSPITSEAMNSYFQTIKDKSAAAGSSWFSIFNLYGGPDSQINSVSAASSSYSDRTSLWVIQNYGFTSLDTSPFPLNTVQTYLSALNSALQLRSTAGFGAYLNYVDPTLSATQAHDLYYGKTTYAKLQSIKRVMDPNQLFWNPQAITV

T1 sequence (I1RWY4 24-499 limits assumed): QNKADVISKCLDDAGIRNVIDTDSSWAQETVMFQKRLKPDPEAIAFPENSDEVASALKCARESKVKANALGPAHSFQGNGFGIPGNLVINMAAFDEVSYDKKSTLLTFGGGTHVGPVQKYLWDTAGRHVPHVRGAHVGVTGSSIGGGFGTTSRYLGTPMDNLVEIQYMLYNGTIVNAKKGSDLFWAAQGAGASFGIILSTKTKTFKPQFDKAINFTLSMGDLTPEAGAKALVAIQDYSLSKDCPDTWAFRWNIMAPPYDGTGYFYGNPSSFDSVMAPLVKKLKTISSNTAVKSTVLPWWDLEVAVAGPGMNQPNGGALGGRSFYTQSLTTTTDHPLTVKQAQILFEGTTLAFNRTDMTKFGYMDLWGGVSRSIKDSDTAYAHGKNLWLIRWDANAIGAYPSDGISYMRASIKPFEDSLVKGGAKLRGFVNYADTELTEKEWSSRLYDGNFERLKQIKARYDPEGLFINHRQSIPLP

## OC[C@H]1O[C@@H](O[C@H]2[C@H](O)[C@@H](O)[C@H](O[C@H]3[C@H](O)[C@@H](O)C(O)O[C@@H]3CO)O[C@@H]2CO)[C@H](O)[C@@H](O)[C@@H]1O (some centres unmarked) [Cellotriose]
FgCelDH7C [1]; read-out: Enzyme / Cellotriose, read-out: Enzyme / MoChi7A / Cellotriose
  Km: 3940 ± 220 µM

## Cc1cc2nc3c(=O)[nH]c(=O)nc-3n(C[C@H](O)[C@H](O)[C@H](O)COP(=O)(O)OP(=O)(O)OC[C@H]3O[C@@H](n4cnc5c(N)ncnc54)[C@H](O)[C@@H]3O)c2cc1C [FAD]
FgCelDH7C [2]
  crystal structure, 1.6 Å: FgCelDH7C is mono-covalently histidyl-tethered due to the substitution of the FAD-tethering cysteine to a glycine
FgChi7B
  crystal structure, 2.4 Å: isoalloxazine ring of the FAD cofactor in FgChi7B is bi-covalently anchored at the C6 atom

## OC[C@H]1O[C@@H](O[C@H]2[C@H](O)[C@@H](O)[C@H](O[C@H]3[C@H](O)[C@@H](O)[C@H](O[C@H]4[C@H](O)[C@@H](O)C(O)O[C@@H]4CO)O[C@@H]3CO)O[C@@H]2CO)[C@H](O)[C@@H](O)[C@@H]1O (some centres unmarked) [Cellotetraose]
FgCelDH7C [1]; read-out: Enzyme / PbChi7A / Cellotetraose
  Km: 6060 ± 270 µM

## CC(=O)N[C@H]1C(O)O[C@H](CO)[C@@H](O)[C@@H]1O (some centres unmarked) [GlcNAc]
MoChi7A
  Km: 800 ± 50 µM

## CC(=O)N[C@H]1C(O)O[C@H](CO)[C@H](O)[C@@H]1O (some centres unmarked) [GalNAc]
MoChi7A
  Km: 1690 ± 120 µM

## CC(=O)N[C@H]1[C@H](O[C@H]2[C@H](O)[C@@H](NC(C)=O)C(O)O[C@@H]2CO)O[C@H](CO)[C@@H](O)[C@@H]1O (some centres unmarked) [Chitobiose]
MoChi7A
  Km: 64 ± 10 µM

## OC[C@H]1O[C@@H](O[C@H]2[C@H](O)[C@@H](O)C(O)O[C@@H]2CO)[C@H](O)[C@@H](O)[C@@H]1O (some centres unmarked) [Cellobiose]
FgCelDH7C [1]; read-out: Parameter / Cellobiose
  Km: 5350 ± 390 µM
